Experimental data from patent US20090023780A1 (priority 2000, published 2009).

Test system: Sprague-Dawley rats
Assay: Phase 1: specific effects of gacyclidine on the nociceptive threshold in rats (modified Randall-Selitto test)
Assay type: in vivo, rat
Settings: for analgesic effect per se: 0.1 mg/kg
Procedure: All the experiments are carried out on Sprague-Dawley rats weighing 350-400 g; each experimental phase is carried out according to a similar plan: each experimental phase is carried out on 6 groups of 12 rats including one group of control animals. The test adopted to measure the nociceptive threshold is the Randall-Selitto Test modified according to Kayser et al. (1990) (Kayser V., Basbaum A. I. and Guilbaud G.,
Deafferentation in the rat increase mechanical nociceptive threshold in the innervated limbs; Brain research ([…]), 508, 329-332), using a mechanical stimulus of increasing intensity (expressed in grams), the retained evoked response being the cry of the animal.
The general plan for an experimental phase is as follows: • arrival and housing of the animals: 4 days; • preparation of the animals allowing them to become familiar with the investigator and the experimental conditions and measurements in order to avoid any possibility of measurement bias being induced by stress: 14 days; • preparation and insertion of the catheters: 9 days; • post-operative rest (with antibiotic treatment) and determination of the stability of the experimental measurements (basic nociceptive threshold): 4 days; • testing of response to the different active ingredients: 9 days.
The 3 doses of gacyclidine retained: 0.1, 0.3 and 1 mg/kg, are injected by venous route using the catheter introduced into a jugular vein.
All the results are analyzed according to an ANOVA test.
Phase 1: study of the specific effects of gacyclidine on the nociceptive threshold in rats.
3 series of experiments each including 2 groups of animals of 12 rats are set up. • 1st series of experiments: • 1st group: the animals receive an injection of physiological saline solution. • 2nd group: the animals receive a dose of 0.1 mg/kg of gacyclidine.
2nd series of experiments: • 1st group: the animals receive an injection of physiological saline solution. • 2nd group: the animals receive a dose of 0.3 mg/kg of gacyclidine.
3rd series of experiments: • 1st group: the animals receive an injection of physiological saline solution. • 2nd group: the animals receive a dose of 1 mg/kg of gacyclidine.
All the animals in the 3 series of experiments are prepared during the same phase. The day of administration of the gacyclidine (or of the physiological saline solution) for each series is deferred by only 3 days in order to follow the evolution of the nociceptive threshold for several days following the administration of the pharmaceutical substances. The measurement of the nociceptive threshold is carried out over at least 4 hours after the injection of gacyclidine, at the rate of one measurement every 30 minutes then daily for at least one week.

[1] = gacyclidine alone, 0.1 mg/kg i.v.

Substance: 1-[cis-2-methyl-1-(2-thienyl)cyclohexyl]piperidine [gacyclidine]
- psychomotor effect (doses of 0.1 and 0.3 mg/kg): does not have any psychomotor effect
- motor effect per se [1]: neither analgesic effect nor motor effect
- analgesic effect per se [1]: neither analgesic effect nor motor effect
- analgesic effect per se (gacyclidine alone, 0.1 mg/kg i.v., listed as thienylcyclohexylamine): does not per se cause any analgesic effect
- duration of analgesic effect (nociceptive threshold) (gacyclidine alone, 0.3 mg/kg i.v.): 30 min
- duration of analgesic effect (nociceptive threshold) (gacyclidine alone, 1 mg/kg i.v.): first hour
- motor effects (gacyclidine alone, 1 mg/kg i.v. (strongest dose used)): induces motor effects
